# Laboratory results taken from ChEMBL document CHEMBL5236627, “Synthesis and biological activity evaluation of novel 3,5,7-trisubstituted pyrazolo[1,5-a]pyrimidines” (2023).
# The source made the active and inactive calls. The rule behind the calls is not given here.
# Columns and labels:
# MOLM-13 = assay: Anticancer activity against human MOLM-13 cells; type: functional, cell-based
# MV4-11 [1] = assay: Anticancer activity against human MV4-11 cells expressing FLT3-ITD mutant; type: functional, cell-based
# MV4-11 [2] = assay: Induction of cell cycle arrest in human MV4-11 cells assessed as S phase cells at 1 uM by PI staining based flow cytometric analysis (reference value: 26.62 % ); type: functional
# MV4-11 [3] = assay: Induction of cell cycle arrest in human MV4-11 cells assessed as G2 phase cells at 0.1 uM by PI staining based flow cytometric analysis (reference value: 12.61 % ); type: functional
# MV4-11 [4] = assay: Induction of cell cycle arrest in human MV4-11 cells assessed as S phase cells at 0.001 uM by PI staining based flow cytometric analysis (reference value: 26.62 % ); type: functional
# MV4-11 [5] = assay: Induction of cell cycle arrest in human MV4-11 cells assessed as accumulation of G1 phase cells at 10 uM by PI staining based flow cytometric analysis (reference value: 60.77 % ); type: functional
# MV4-11 [6] = assay: Induction of cell cycle arrest in human MV4-11 cells assessed as accumulation of G1 phase cells at 0.001 uM by PI staining based flow cytometric analysis (reference value: 60.77 % ); type: functional
# CCRF-CEM = assay: Anticancer activity against FLT3-independent human CCRF-CEM cells; type: functional, cell-based
# [7] = biological target: Cyclin-dependent kinase 2 (Homo sapiens) (UniProt P24941); assay: Inhibition of CDK2 (unknown origin)
# MV4-11 [8] = assay: Induction of cell cycle arrest in human MV4-11 cells assessed as G2 phase cells at 0.001 uM by PI staining based flow cytometric analysis (reference value: 12.61 % ); type: functional
# MV4-11 [9] = assay: Induction of cell cycle arrest in human MV4-11 cells assessed as G2 phase cells at 10 uM by PI staining based flow cytometric analysis (reference value: 12.61 % ); type: functional
# THP-1 = assay: Anticancer activity against human THP-1 cells; type: functional, cell-based
# MV4-11 [10] = assay: Induction of cell cycle arrest in human MV4-11 cells assessed as S phase cells at 10 uM by PI staining based flow cytometric analysis (reference value: 26.62 % ); type: functional
# [11] = biological target: Mitogen-activated protein kinase; ERK1/ERK2 (Homo sapiens) (UniProt P27361+P28482); assay: Inhibition of ERK1/2 phosphorylation at Thr202/Tyr204 residues in human MV4-11 cells at 0.1 uM incubated for 1 hrs by immunoblotting analysis; type: cell-based
# Chain of Mitogen-activated protein kinase; ERK1/ERK2 (Homo sapiens) (P27361 whole entry, looked up): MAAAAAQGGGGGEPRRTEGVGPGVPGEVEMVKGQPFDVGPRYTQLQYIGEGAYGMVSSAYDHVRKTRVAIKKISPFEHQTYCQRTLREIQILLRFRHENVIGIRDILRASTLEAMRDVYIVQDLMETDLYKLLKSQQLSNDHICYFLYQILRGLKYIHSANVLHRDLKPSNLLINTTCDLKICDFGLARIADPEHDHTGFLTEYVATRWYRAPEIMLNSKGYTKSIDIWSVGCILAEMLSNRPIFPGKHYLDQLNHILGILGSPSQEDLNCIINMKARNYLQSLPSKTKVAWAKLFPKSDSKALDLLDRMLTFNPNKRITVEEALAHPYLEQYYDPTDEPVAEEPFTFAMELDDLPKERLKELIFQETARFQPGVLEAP
# Chain of Mitogen-activated protein kinase; ERK1/ERK2 (Homo sapiens) (P28482 whole entry, looked up): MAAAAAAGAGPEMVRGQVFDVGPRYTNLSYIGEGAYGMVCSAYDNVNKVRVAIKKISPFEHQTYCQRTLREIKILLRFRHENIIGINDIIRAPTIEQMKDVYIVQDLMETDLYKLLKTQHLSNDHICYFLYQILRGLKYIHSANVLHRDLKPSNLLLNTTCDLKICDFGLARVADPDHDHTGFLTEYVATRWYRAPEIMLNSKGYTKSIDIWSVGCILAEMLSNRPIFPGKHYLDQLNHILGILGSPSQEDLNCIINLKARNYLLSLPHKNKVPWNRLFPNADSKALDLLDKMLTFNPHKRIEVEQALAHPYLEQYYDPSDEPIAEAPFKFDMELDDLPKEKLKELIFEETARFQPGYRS
# MV4-11 [12] = assay: Induction of cell cycle arrest in human MV4-11 cells assessed as S phase cells at 0.01 uM by PI staining based flow cytometric analysis (reference value: 26.62 % ); type: functional
# MV4-11 [13] = assay: Induction of cell cycle arrest in human MV4-11 cells assessed as G2 phase cells at 0.01 uM by PI staining based flow cytometric analysis (reference value: 12.61 % ); type: functional
# MV4-11 [14] = assay: Induction of cell cycle arrest in human MV4-11 cells assessed as accumulation of G1 phase cells at 0.01 uM by PI staining based flow cytometric analysis (reference value: 60.77 % ); type: functional
# [15] = biological target: Receptor-type tyrosine-protein kinase FLT3 (Homo sapiens) (UniProt P36888); assay: Inhibition of FLT3 autophosphorylation at tyrosine 589/591 residues in human MV4-11 cells at 0.01 uM incubated for 1 hrs by immunoblotting analysis; type: cell-based
# Chain of Receptor-type tyrosine-protein kinase FLT3 (Homo sapiens) (P36888 whole entry): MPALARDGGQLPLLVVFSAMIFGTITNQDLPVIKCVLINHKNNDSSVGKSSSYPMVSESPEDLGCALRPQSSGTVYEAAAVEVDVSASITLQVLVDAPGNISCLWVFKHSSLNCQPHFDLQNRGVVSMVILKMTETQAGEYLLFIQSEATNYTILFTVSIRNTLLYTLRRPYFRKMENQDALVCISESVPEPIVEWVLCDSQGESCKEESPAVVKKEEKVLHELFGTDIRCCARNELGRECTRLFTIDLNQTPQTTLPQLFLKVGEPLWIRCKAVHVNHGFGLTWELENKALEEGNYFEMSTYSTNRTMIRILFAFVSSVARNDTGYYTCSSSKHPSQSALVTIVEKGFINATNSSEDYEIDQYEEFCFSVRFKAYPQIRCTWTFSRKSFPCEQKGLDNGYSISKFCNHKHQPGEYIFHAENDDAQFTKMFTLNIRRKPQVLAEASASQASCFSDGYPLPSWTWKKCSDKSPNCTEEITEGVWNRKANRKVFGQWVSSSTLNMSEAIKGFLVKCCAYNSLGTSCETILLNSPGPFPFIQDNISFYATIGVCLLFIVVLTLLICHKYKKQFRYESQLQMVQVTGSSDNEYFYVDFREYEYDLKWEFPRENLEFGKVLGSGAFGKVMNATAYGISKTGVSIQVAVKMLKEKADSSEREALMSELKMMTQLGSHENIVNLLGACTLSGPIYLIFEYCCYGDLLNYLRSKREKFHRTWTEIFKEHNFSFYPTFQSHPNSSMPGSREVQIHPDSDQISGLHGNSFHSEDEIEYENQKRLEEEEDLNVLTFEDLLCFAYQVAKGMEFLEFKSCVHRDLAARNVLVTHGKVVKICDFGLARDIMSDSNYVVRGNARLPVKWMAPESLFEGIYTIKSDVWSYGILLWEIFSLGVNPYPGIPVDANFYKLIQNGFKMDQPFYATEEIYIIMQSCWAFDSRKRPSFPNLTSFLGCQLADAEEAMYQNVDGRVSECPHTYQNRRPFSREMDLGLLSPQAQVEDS
# K562 = assay: Anticancer activity against human K562 cells; type: functional, cell-based
# MV4-11 [16] = assay: Induction of cell cycle arrest in human MV4-11 cells assessed as accumulation of G1 phase cells at 0.1 uM by PI staining based flow cytometric analysis (reference value: 60.77 % ); type: functional
# MV4-11 [17] = assay: Induction of cell cycle arrest in human MV4-11 cells assessed as accumulation of G1 phase cells at 1 uM by PI staining based flow cytometric analysis (reference value: 60.77 % ); type: functional
# MCF7 = assay: Anticancer activity against human MCF7 cells; type: functional, cell-based
# [18] = biological target: Cyclin-dependent kinase 9 (Homo sapiens) (UniProt P50750); assay: Inhibition of CDK9 (unknown origin)
# Chain of Cyclin-dependent kinase 9 (Homo sapiens) (P50750 whole entry): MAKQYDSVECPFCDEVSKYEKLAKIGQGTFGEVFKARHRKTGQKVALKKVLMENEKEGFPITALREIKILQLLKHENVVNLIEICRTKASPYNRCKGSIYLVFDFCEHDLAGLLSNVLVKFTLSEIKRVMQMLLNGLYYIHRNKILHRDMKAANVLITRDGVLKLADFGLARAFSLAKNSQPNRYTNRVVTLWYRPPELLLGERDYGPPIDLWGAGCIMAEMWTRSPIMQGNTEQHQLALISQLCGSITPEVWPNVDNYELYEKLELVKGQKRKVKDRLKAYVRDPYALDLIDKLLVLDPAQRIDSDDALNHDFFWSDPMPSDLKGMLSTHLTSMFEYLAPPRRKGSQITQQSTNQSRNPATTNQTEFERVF
# [19] = biological target: T1, Signal transducer and activator of transcription 5A (Homo sapiens) (UniProt P42229); assay: Inhibition of STAT5 phosphorylation in human MV4-11 cells at 0.01 uM incubated for 1 hrs by immunoblotting analysis; type: cell-based
# T1 sequence (whole entry): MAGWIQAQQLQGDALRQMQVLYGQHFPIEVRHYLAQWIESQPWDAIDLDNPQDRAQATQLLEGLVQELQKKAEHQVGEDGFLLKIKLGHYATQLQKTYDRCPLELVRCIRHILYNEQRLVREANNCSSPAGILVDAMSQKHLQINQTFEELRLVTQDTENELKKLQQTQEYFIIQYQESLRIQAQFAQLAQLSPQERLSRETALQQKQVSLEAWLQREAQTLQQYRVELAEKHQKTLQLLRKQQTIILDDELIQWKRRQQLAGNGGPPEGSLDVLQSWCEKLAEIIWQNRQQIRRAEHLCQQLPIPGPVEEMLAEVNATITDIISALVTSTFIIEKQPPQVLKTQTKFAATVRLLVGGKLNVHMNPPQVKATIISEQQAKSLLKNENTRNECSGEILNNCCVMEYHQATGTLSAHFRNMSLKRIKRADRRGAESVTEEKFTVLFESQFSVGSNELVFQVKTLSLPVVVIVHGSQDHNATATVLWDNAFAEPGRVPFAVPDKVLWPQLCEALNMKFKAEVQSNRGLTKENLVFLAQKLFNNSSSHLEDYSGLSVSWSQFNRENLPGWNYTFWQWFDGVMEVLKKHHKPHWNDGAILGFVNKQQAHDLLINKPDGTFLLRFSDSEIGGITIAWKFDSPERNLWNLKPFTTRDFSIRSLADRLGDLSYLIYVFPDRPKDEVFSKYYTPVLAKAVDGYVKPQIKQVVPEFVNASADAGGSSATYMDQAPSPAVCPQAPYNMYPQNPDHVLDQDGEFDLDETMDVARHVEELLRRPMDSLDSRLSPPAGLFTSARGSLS
# MV4-11 [20] = assay: Induction of cell cycle arrest in human MV4-11 cells assessed as S phase cells at 0.1 uM by PI staining based flow cytometric analysis (reference value: 26.62 % ); type: functional
# MV4-11 [21] = assay: Induction of cell cycle arrest in human MV4-11 cells assessed as G2 phase cells at 1 uM by PI staining based flow cytometric analysis (reference value: 12.61 % ); type: functional
compound,measurement,setting,value
N[C@H]1CC[C@H](Nc2cc(Nc3cccc(CN4CCOCC4)c3)n3ncc(C4CCCC4)c3n2)CC1,Activity,MOLM-13,Active
same,Activity,MV4-11 [1],Active
N[C@H]1CC[C@H](Nc2cc(NCc3ccc(Br)cc3)n3ncc(C4CCCC4)c3n2)CC1,Activity,MOLM-13,Active
same,Activity,MV4-11 [1],Active
N[C@H]1CC[C@H](Nc2cc(Nc3ccc(CN4CCOCC4)cc3)n3ncc(C4CCCC4)c3n2)CC1,Activity,MV4-11 [2],16.48%
same,Activity,MV4-11 [3],5.11%
same,Activity,MV4-11 [4],26.03%
same,Activity,MV4-11 [5],75.69%
same,Activity,MV4-11 [6],59.36%
same,Activity,CCRF-CEM,Active
same,inhibition,[7],Active
same,Activity,MV4-11 [8],14.62%
same,Activity,MV4-11 [9],5.93%
same,Activity,THP-1,Active
same,Activity,MV4-11 [10],18.38%
same,inhibition,[11],Active
same,Activity,MV4-11 [12],25.25%
same,Activity,MV4-11 [13],12.79%
same,Activity,MV4-11 [14],61.96%
same,inhibition,[15],Active
same,Activity,K562,Active
same,Activity,MV4-11 [16],86.23%
same,Activity,MV4-11 [17],76.39%
same,Activity,MOLM-13,Active
same,Activity,MCF7,Active
same,inhibition,[18],Active
same,Activity,MV4-11 [1],Active
same,inhibition,[19],Active
same,Activity,MV4-11 [20],8.66%
same,Activity,MV4-11 [21],7.13%
CC[C@@H](CO)Nc1cc(Nc2ccc(-c3cccs3)nc2)n2ncc(C3CCCC3)c2n1,Activity,MOLM-13,Active
same,Activity,MV4-11 [1],Active
NCCCCNc1cc(Nc2ccc(CN3CCOCC3)cc2)n2ncc(C3CCCC3)c2n1,Activity,MOLM-13,Active
same,Activity,MV4-11 [1],Active
N[C@H]1CC[C@H](Nc2cc(Nc3ccc(N4CC5(COC5)C4)cc3)n3ncc(C4CCCC4)c3n2)CC1,Activity,MOLM-13,Active
same,Activity,MV4-11 [1],Active
N[C@H]1CC[C@H](Nc2cc(Nc3ccc(-c4cccs4)nc3)n3ncc(C4CCCC4)c3n2)CC1,Activity,CCRF-CEM,Active
same,inhibition,[7],Active
same,Activity,THP-1,Active
same,Activity,K562,Active
same,Activity,MOLM-13,Active
same,Activity,MCF7,Active
same,inhibition,[18],Active
same,Activity,MV4-11 [1],Active
NCCCCNc1cc(NCc2cccc(CN3CCOCC3)c2)n2ncc(C3CCCC3)c2n1,Activity,MOLM-13,Active
same,Activity,MV4-11 [1],Active
